In patent publication US20030105121A1, “Method of preventing lipodystrophy syndrome or reversing a pre-existing syndrome in HIV-infected patients being treated with antiretroviral agents” (priority 1999, published 2003):
“Also recorded” adds a separate entry of the source.

Key:
[1] = tested on: lipodystrophy syndrome; conditions: in vivo; cited from earlier work
[2] = human, in vivo
Description: (§1) Because individual examples of treatment histories are of little value in discerning the effectiveness of a given treatment for HIV/AIDS infections, and especially effectiveness in reducing the likelihood of developing a highly variable side effect such as lipodystrophy, due among other things to wide differences in the initial extent of the infection as well as in the response of any given individual, a group of 85 different cases will be evaluated as a group in the following discussion. This number is believed to be a sufficiently large statistical sample to permit a reasonable judgment to be made of the effectiveness of the treatment of this invention.
The medication status of the group at the time of initiation of PI treatment was as follows: Due to historical circumstances, i.e. the predilection in view of the earlier patent of the applicant to treating HIV/AIDS patients with naltrexone, all individuals of the group were already receiving naltrexone at the low dosage level. Based on blood count of […] lymphocytes, individual clinical history and personal patient preference, 60 had already been receiving, or were started on, lamivudine (NA) while 49 of the 65 were also receiving zidovudine (NA) and 4 of the 69 were receiving a combination of lamivudine and stavovudine, bearing in mind that the NA group of antivirals had been available for the longest time. […] Patients already on any of the NA agents, as just specified, were continued on this treatment during the study. The remaining 25 were receiving no medications (other than naltrexone) at the start of the study.

[3] = Long experience with low dose naltrexone: side effects; type: in vivo, human
Procedure: Long experience has shown the perhaps three percent (3%) of patients receiving the drug at a 4.5 mg. dosage per day may suffer sleep disturbance lasting more than two or three days. Where this has been observed, reduction of the dosage to 3.0 mg. generally returns the sleep pattern to normalcy.

[4] = tested on: HIV; assay: Experience with low dose naltrexone treatment of HIV; type: in vivo, human; conditions: low dose naltrexone alone
Description: I have already disclosed in U.S. Pat. No. 4,888,346, issued Dec. 19, 1989, as a continuation of Ser. No. 06/916,180, filed Oct. 7, 1986, the administration of an essentially pure opiate receptor antagonist at a low dose level to patients suffering from acquired immune deficiency syndrome (or AIDS) in any of its known states, including AIDS-related complex. For this treatment, the amount of the essentially pure opiate receptor antagonist was required to be at a quite low level corresponding in results to those obtained by the administration of Naltrexone at a dosage level of from 1.0 mg. to 10 mg., preferably at a dosage level of 1.0 mg. to about 5 mg., and most preferably up to about 3.0 mg, all per day. At dosage levels above about 10 mg. per day, not only were the desired therapeutic results not obtained but the effect of the treatment appeared to be negative in acerbating the disease.

[5] = tested on: lipodystrophy; assay: Case histories (Examples a-g): LDN treatment of pre-existing lipodystrophy; type: in vivo, human; conditions: for serum cholesterol after resuming naltrexone: Example a nine months (from 270), Example d 12 months (from 360)
Description: One will have noted that the above case experience was entirely focused on limiting the risk of patients who were at the time free of lipodystrophy symptoms developing such symptoms during their antiretroviral therapy. This is explained by the fact that due to historical circumstances, i.e. the only recent introduction of antiretroviral therapy, the patients in this group were all being treated with naltrexone as described before being exposed to antiretroviral therapy. […] This was not anticipated and is considered to be a quite surprising finding.

[6] = tested on: HIV; type: in vivo; conditions: four continuously undetectable patients, last six months of the study
Description: as §1
The medication status of the group at the time of initiation of PI treatment was as follows: Due to historical circumstances, i.e. the predilection in view of the earlier patent of the applicant to treating HIV/AIDS patients with naltrexone, all individuals of the group were already receiving naltrexone at the low dosage level. Based on blood count of […] lymphocytes, individual clinical history and personal patient preference, 60 had already been receiving, or were started on, lamivudine (NA) while 49 of the 65 were also receiving zidovudine (NA) and 4 of the 69 were receiving a combination of lamivudine and stavovudine, bearing in mind that the NA group of antivirals had been available for the longest time. […]

[7] = 3.0 mg qhs added to ARV, single cases
[8] = 3.0 mg qhs added to ARV, single cases, listed as LDN

In the case of `Cc1cn([C@H]2C=C[C@@H](CO)O2)c(=O)[nH]c1=O` [zerit, stavudine], the “rate or risk of lipodystrophy” value [1] is listed as “at least 40%”.
For `CC(C)(C)NC(=O)[C@@H]1CN(Cc2cccnc2)CCN1C[C@@H](O)C[C@@H](Cc1ccccc1)C(=O)N[C@H]1c2ccccc2C[C@H]1O` [indinavir], the persistent side effects [2] was “mild nausea”.
With `Cc1ccnc2c1NC(=O)c1cccnc1N2C1CC1` [nevirapine] the “patients developing body-wide allergic rashes with hives and itching” value [2] was “Seven”.
For `O=C1CC[C@@]2(O)[C@H]3Cc4ccc(O)c5c4[C@@]2(CCN3CC2CC2)[C@H]1O5` [naltrexone, Naltrexone], the “patients with sleep disturbance lasting more than two or three days” value ([3]; 4.5 mg. dosage per day) was roughly 3%, the “side effects or toxicity” value ([3]; low dose levels) was “minimal side effects or evidence of toxicity” and the “effect on the patient's HIV condition” value [4] was “stabilizing effect”. For the same compound, the “serum triglycerides after resuming LDN” value ([5]; 3.0 mg qhs added to ARV, 12 months, from 620) was 140, the “reduction of "buffalo hump"” value ([5]; 3 mg qhs added to ARV, nine months) was “about 50%” and the “serum cholesterol after resuming naltrexone” value ([5]; 3 mg qhs added to ARV) was 190. For the same compound, the “serum cholesterol after resuming naltrexone” value ([5]; 3 mg qhs added to ARV, listed as LDN) was 220, the “other physical signs (subcutaneous tissue, breast size)” value [5, 7] was “returned” and the waist size outcome [5, 7] was “gradually reduced to its former size; also recorded: returned to their previous normal state”. The “other physical signs (subcutaneous tissue, breast size)” value [5, 8] was “about one-half”, the waist size outcome [5, 8] was “partially cleared by about one-half” and the “decrease in waist size” value ([5]; 4.5 mg qhs added to ARV, eight weeks) was 4 ″. For the same compound, the insulin need ([5]; 4.5 mg qhs added to ARV, four weeks, from 90 units) was 20 units per day, the waist size ([5]; 4.5 mg qhs added to ARV, three months, from 44″) was 40 ″ and the “"buffalo hump" outcome” value ([5]; 3.0-4.5 mg qhs added to ARV, single cases) was “completely disappeared; also recorded: shrank and eventually disappeared”. For the same compound, the “signs of lipodystrophy overall” value ([5]; 3.0-4.5 mg qhs added to ARV, single cases, about eight months, listed as LDN) was “gradually disappeared; also recorded: complete reversal; also recorded: gradual clearing in the residual signs” and the “"buffalo hump" outcome” value ([5]; 3.0-4.5 mg qhs added to ARV, single cases, listed as LDN) was “about one-half; also recorded: largely disappeared”.
In the case of `Cc1c(O)cccc1C(=O)N[C@@H](CSc1ccccc1)[C@H](O)CN1C[C@H]2CCCC[C@H]2C[C@H]1C(=O)NC(C)(C)C` [nelfinavir], the “side effect associated with the drug” value [2] is reported as “persistent diarrhea” and the “change in viral levels after substitution of indinavir” value [6] is reported as “did not result in any appreciable change in viral levels”.
